Consider one molecule from US20090291857A1, “METHODS TO IDENTIFY INHIBITORS OF THE UNFOLDED PROTEIN RESPONSE” (THE BOARD OF TRUSTEES OF THE LELAND STANFORD JUNIOR …, priority 2006, published 2009).

One assay concerns HT1080 tumor xenografts. Briefly: Immunohistochemical analysis of tumor xenografts. Format: in vivo, mouse. The note with it: three doses, 50 mg/kg. As to the method:
Tumor-bearing mice were injected i.p. with hypoxyprobe (50 mg/kg) 1 hour prior to sacrifice. Mice were euthanised under anesthesia by cervical dislocation, and tumors were surgically resected, embedded in OCT compound (Sakura Tissue Tek), and frozen at −80° C. Tumors were sectioned at 8 μm, fixed in 4% paraformaldehyde, and blocked in PBS-4% BSA. Tissue sections were incubated overnight in block solution containing antisera specific for hypoxyprobe (1:250) and cleaved caspase-3 (1:400). Slides were washed three times with block solution and incubated for 2 hours at room temperature with anti-mouse Alexa 488 or anti-rabbit Alexa 594 (Invitrogen, San Diego, Calif.). Slides were washed five times in block solution, and coverslips mounted with Permount supplemented with DAPI.
Immunohistochemical analysis of tumor xenografts. […] D. Quantification of tumor immunohistochemistry. At least 8 randomly chosen fields (>300 cells/field) per tumor were scored for pimonidazole and cleaved caspase-3 staining. A minimum of 3 tumors (250-300 mm^3 at harvest) were analyzed per treatment group. […]
We further examined tumors from control and irestatin-treated mice for differences in cell survival. […] The increase in apoptosis was most pronounced in hypoxic tissue regions of tumors, as determined by co-immunoreactivity for pimonidazole adducts (FIG. 14C, bottom panel). […]

In the next assay the target is T1, IRE1α (Homo sapiens, UniProt O75460).
T1 construct: endogenous in cells; host or cells: HT1080
T1 sequence (O75460 19-977): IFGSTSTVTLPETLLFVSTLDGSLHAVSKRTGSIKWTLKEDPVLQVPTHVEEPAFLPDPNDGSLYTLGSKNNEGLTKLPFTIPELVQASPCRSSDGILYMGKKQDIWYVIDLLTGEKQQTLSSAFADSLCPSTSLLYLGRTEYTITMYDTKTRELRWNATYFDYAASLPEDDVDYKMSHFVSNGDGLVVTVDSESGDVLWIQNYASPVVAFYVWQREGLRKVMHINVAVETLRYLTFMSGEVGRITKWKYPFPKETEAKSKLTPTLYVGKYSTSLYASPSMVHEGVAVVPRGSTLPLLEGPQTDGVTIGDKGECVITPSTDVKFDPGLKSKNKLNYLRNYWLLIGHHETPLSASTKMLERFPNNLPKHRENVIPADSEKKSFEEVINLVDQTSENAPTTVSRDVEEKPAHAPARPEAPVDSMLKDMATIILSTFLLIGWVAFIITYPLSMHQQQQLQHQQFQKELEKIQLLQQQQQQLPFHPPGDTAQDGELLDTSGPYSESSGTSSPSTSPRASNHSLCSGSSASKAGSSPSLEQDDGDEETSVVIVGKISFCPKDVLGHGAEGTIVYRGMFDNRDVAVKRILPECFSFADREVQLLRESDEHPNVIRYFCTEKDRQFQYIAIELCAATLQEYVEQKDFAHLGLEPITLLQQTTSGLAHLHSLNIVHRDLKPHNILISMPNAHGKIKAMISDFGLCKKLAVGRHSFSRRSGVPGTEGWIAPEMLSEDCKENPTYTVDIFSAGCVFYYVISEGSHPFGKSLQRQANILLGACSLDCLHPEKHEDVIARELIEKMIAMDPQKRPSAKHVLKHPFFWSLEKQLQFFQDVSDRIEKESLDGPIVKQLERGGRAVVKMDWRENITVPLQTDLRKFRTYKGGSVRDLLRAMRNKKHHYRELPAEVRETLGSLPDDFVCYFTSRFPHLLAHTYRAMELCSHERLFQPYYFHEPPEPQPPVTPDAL
Briefly: IRE1α expression and kinase function (phospho-IRE1α immunoblot). Type of assay: cell-based. As to the method: Cells (2×10^6) were cultured in 10-cm dishes, collected using a cell scraper at 4° C., and lysed by addition of 150 μl cell lysis buffer [50 mM Tris pH 7.4, 150 mM NaCl, 10% glycerol, 0.5% Triton X-100. 0.5% NP-40, 2 mM Na3VO4, 20 mM beta-glycerophosphate, 10 mM NaF, 1 mM DTT, 1 mM PMSF). Lysates were centrifuged for 5 min at 10,000×g, and proteins (˜40 μg) were resolved by SDS-PAGE followed by semi-dry transfer to nitrocellulose membranes. Membranes were blocked in TBS-5% milk supplemented with 0.1% Tween-20. The blots were then probed overnight with relevant antibodies, washed, and incubated for 2 hours with species-specific secondary antibodies conjugated to horseradish peroxidase. After washing in block solution, immunoreactive material was detected by enhanced chemiluminescence (SuperSignal West Dura Extended, Pierce, Inc., Rockville, Ill.).
HT1080 cells were exposed to DMSO vehicle (lane 1), irestatin 9389 (2.5 μM; lane 2) for 16 hours or Tm (5 μg/ml; lane 3) for 8 hours. Following treatments, cells were harvested, lysed, and analyzed by immunoblotting using anti-Grp78 antibody (top) or anti-actin (bottom) as a loading control. […] Cell lysates were analyzed by Western immunoblotting using anti-IRE1α (bottom) or anti-phospho-IRE1α antibodies (top). […] Lysates were analyzed by Western blot using antisera specific for phospho-JNK1 (top) or total JNK1 (bottom). […]
In general terms: A western blot detects proteins with antibodies after separation by electrophoresis.

Assay [1] concerns HT1080 tet-off Flag-XBP-1s cells. Nature of the assay: Colony formation of HT1080 tet-off Flag-XBP-1s cells under hypoxia. Type of assay: cell-based, human. As to conditions: 2.5 μM, no dox, hypoxia 48 hours.
The next assay relates to JNK1. Nature of the assay: JNK1 activation under ER stress. Type of assay: cell-based, human. As to conditions: 2.5 μM, 2 hour preincubation, Tm 4 μg/ml 1.5 hrs. As to the method:
HT1080 cells were exposed to DMSO vehicle (lane 1), irestatin 9389 (2.5 μM; lane 2) for 16 hours or Tm (5 μg/ml; lane 3) for 8 hours. Following treatments, cells were harvested, lysed, and analyzed by immunoblotting using anti-Grp78 antibody (top) or anti-actin (bottom) as a loading control. B. Effect of irestatin 9389 on IRE1α expression and kinase function. HT1080 cells were preincubated for 16 hours with either vehicle or irestatin 9389 (2.5 μM), followed by addition of Tm (5 μg/ml) for the indicated times. Cell lysates were analyzed by Western immunoblotting using anti-IRE1α (bottom) or anti-phospho-IRE1α antibodies (top). C. Effect of irestatins on JNK1 activation under ER stress. HT1080 cells were untreated (lane 1), exposed to TNF-α (10 ng/ml, 10 min), or Tm (4 μg/ml, 1.5 hrs) (lanes 3-8) following a 2 hour preincubation in the presence of vehicle (lane 3) or the indicated irestatins (2.5 μM; lanes 4-8). Lysates were analyzed by Western blot using antisera specific for phospho-JNK1 (top) or total JNK1 (bottom). […] F. Quantification of RNA cleavage kinetics. […] Samples were analyzed as in (E).
Activation of IRE1α is preceded by ATP binding and autophosphorylation, and the IRE1α kinase is required for endonuclease activity. […] Cells were then harvested at regular intervals, and activation of the IRE1α kinase was assessed by immunoblotting using anti-phospho-IRE1α antisera.

Consider `Cc1csc(NC(=O)CSc2nc3c(c(C(F)(F)F)c2C#N)CCC3)n1` [Compound 9389], for which the “cleaved caspase-3 in tumors relative to vehicle” value in the assay on HT1080 tumor xenografts is “significant increase”. For the same molecule, the “total level of IRE1α” value on IRE1α (2.5 μM, 16 hours) is listed as “no significant changes”. The “levels of phospho-IRE1α after Tm” value at IRE1α (16 hours preincubation 2.5 μM, then Tm 5 μg/ml) is recorded as “rapid increase in levels of phospho-IRE1α”. Further, the “survival of hypoxic cells expressing Flag-XBP-1s” value in assay [1] was “minimal effect”. Moreover, the “phosphorylation of JNK1 during Tm-induced ER stress” value in the assay on JNK1 is “failed to block the phosphorylation of JNK1”.
